In patent publication US20100240758A1, “EXTERNAL PREPARATION FOR PERCUTANEOUS ADMINISTRATION CONTAINING NONSTEROIDAL ANTI-INFLAMMATORY ANALGESIC” (Hisamitsu Pharmaceutical Co., Inc., priority 2003, published 2010):

Legend:
Balb/c mouse [1] = assay: In vivo phototoxicity test (auricular light irradiation, ear swelling due to ketoprofen); settings: UVA 40 J/cm^2, 24 hours after irradiation, toward KP group
Method: The experiment below was carried out by partially refining the method of Gerberick et al., (Food Chem. Toxicol., 27, 813-819 (1989)). That is, a Balb/c mouse (female, 9 to 11 weeks old) was used as a test animal, each of the test substances {4-tert-butyl-4′-methoxydibenzoylmethane (BM-DBM), 2-ethylhexyl dimethoxybenzylidenedioxoimidazolidine propionate (DB-DIH), terephthalylidene-3,3′-dicamphor-10,10′-disulfonic acid (TP-DCS), n-hexyl 2-(4-diethylamino-2-hydroxybenzoyl)benzoate (DHB-BH)} and 2% ketoprofen (KP) were dissolved in ethanol and applied to the auricle, and it was irradiated with UVA at 40 J/cm^2. 24 hours after UVA irradiation, the ear thickness was measured, and an increase from the ear thickness prior to the start of the test was calculated. The effect in suppressing phototoxicity due to KP was evaluated for each test substance using as an index the degree of suppression of the increase in ear thickness due to KP, that is, the ear swelling suppression rate (%) toward the KP group.

[2] = tested on: Hartley white female guinea pig; assay: In vivo photoallergy test 2 (skin photoallergy test, Adjuvant and Strip Method); settings: 2% KP + 2% test substance, toward KP group
Method: A skin photoallergy test using a guinea pig was carried out by partially refining the Adjuvant and Strip Method of Sato et al., (The Nishinihon Journal of Dermatology, 42, 831-837 (1980)). That is, the back of the neck of a Hartley white female guinea pig (a group of 8 animals) was depilated, an adjuvant was administered to four corners of 2×2 cm, a 2% ethanol solution of ketoprofen (KP) or a solution of 2% KP+2% test substance {4-tert-butyl-4′-methoxydibenzoylmethane ([…])} was openly applied to the 2×2 cm area, and 1 hour later it was irradiated with UVA (10 J/cm^2). This sensitization induction treatment was carried out for 5 days in succession. 3 weeks after starting the sensitization, the back of the hip was depilated, the same solution as for the sensitization was openly applied to a 2×2 cm area, and 1 hour later it was irradiated with UVA (10 J/cm^2) to thus carry out a photoinduction. A skin reaction 24 and 48 hours after the irradiation was evaluated in accordance with the above-mentioned criteria of Sato et al. The effect of BM-DBM in suppressing photoallergy due to KP was evaluated by erythema and swelling suppression rates (%) toward the KP group.

Balb/c mouse [3] = assay: In vivo photoallergy test 1 (refined Murine Local Lymph Node Assay, 3H-TdR uptake); settings: UVA 20 J/cm^2, 3 days, toward KP group
Method: A KP photoallergy detection test was carried out by refining the Murine Local Lymph Node Assay (LLNA) proposed by the Interagency Coordinating Committee on the Validation of Alternative Methods (ICCVAM). That is, a Balb/c mouse (female, 8 to 12 weeks old) was used as a test animal, a solution of a test substance {4-tert-butyl-4′-methoxydibenzoylmethane (BM-DBM)} and 2% ketoprofen (KP) prepared in acetone—olive oil (4:1, v/v) was applied to the back of the pinna, and it was irradiated with UVA at 20 J/cm^2. This sensitization induction treatment was carried out for 3 days in succession. 5 days after starting the sensitization, 20 μCi per mouse of ^3H-methyl thymidine (^3H-TdR)/PBS solution was injected into the tail vein, and 5 hours later an auricular lymph node was removed. The removed lymph node was made into a single lymph cell suspension using a cell strainer, and after washing twice with PBS was then allowed to stand in a 5% trichloroacetic acid (TCA) solution at 4° C. overnight to thus make DNA precipitate. After the precipitate was suspended in 1 mL of 5% TCA solution, the radioactivity was measured using a liquid scintillation counter. The effect of the test substance in suppressing photoallergy due to KP was evaluated using as an index the degree of suppression of the increase in ^3H-TdR uptake by KP, that is, the ^3H-TdR uptake suppression rate (%) toward the KP group.

[4] = test substance 0.5% with 2% KP in ethanol on auricle

Structure (SMILES): CC1(C)C2CCC1(CS(=O)(=O)O)C(=O)/C2=C\c1ccc(/C=C2/C(=O)C3(CS(=O)(=O)O)CCC2C3(C)C)cc1 [TP-DCS, terephthalylidene-3,3′-dicamphor-10,10′-disulfonic acid]
- Ear Swelling Suppression Rate (%) (Balb/c mouse [1]; [4]): 65%

Structure (SMILES): CCCCC(CC)COC(=O)CCN1C(=O)NC(=Cc2ccc(OC)c(OC)c2)C1=O (stereo not shown) [DB-DIH, 2-ethylhexyl dimethoxybenzylidenedioxoimidazolidine propionate]
- Ear Swelling Suppression Rate (%) (Balb/c mouse [1]; [4]): 34%

Structure (SMILES): CCCCCCOC(=O)c1ccccc1C(=O)c1ccc(N(CC)CC)cc1O [DHB-BH, n-hexyl 2-(4-diethylamino-2-hydroxybenzoyl)benzoate]
- Ear Swelling Suppression Rate (%) (Balb/c mouse [1]; [4]): 84%

Structure (SMILES): COc1ccc(C(=O)CC(=O)c2ccc(C(C)(C)C)cc2)cc1 [BM-DBM, 4-tert-butyl-4′-methoxydibenzoylmethane]
- Erythema/Swelling Suppression Rate (%) After 24 Hr ([2]; UVA 10 J/cm^2, 24 hours after photoinduction irradiation): 69%
- Erythema/Swelling Suppression Rate (%) After 48 Hr ([2]; UVA 10 J/cm^2, 48 hours after photoinduction irradiation): 74%
- ^3H-TdR Uptake Suppression Rate (%) (Balb/c mouse [3]; BM-DBM 0.06% with 2% KP in acetone-olive oil): 30%
- ^3H-TdR Uptake Suppression Rate (%) (Balb/c mouse [3]; BM-DBM 0.13% with 2% KP in acetone-olive oil): 51%
- ^3H-TdR Uptake Suppression Rate (%) (Balb/c mouse [3]; BM-DBM 0.25% with 2% KP in acetone-olive oil): 24%
- ^3H-TdR Uptake Suppression Rate (%) (Balb/c mouse [3]; BM-DBM 0.50% with 2% KP in acetone-olive oil): 94%
- ^3H-TdR Uptake Suppression Rate (%) (Balb/c mouse [3]; BM-DBM 1.00% with 2% KP in acetone-olive oil): 99%
- Ear Swelling Suppression Rate (%) (Balb/c mouse [1]; test substance 0.1% with 2% KP in ethanol on auricle): 41%
- Ear Swelling Suppression Rate (%) (Balb/c mouse [1]; test substance 0.3% with 2% KP in ethanol on auricle): 81%
- Ear Swelling Suppression Rate (%) (Balb/c mouse [1]; [4]): 98%
